Laboratory results as given in US11242345B2, “Sulfonimidoylpurinone compounds and methods of treatment using the same” (Hoffmann-La Roche Inc., priority 2015, dated 2022).
Like-named read-outs stand apart in the source and are kept apart here.

Legend:
[1] = molecular target: human TLR7 (Homo sapiens (Human), UniProt Q9NYK1); experiment: HEK-Blue-hTLR7 cells assay (SEAP reporter); type: cell-based; conditions: 20 hrs
Description: A stable HEK-Blue-hTLR7 cell line was purchased from InvivoGen (Cat. #: hkb-htlr7, San Diego, Calif., USA). These cells were designed for studying the stimulation of human TLR7 by monitoring the activation of NF-κB. […] Therefore the reporter expression was regulated by the NF-κB promoter upon stimulation of human TLR7 for 20 hrs. The cell culture supernatant SEAP reporter activity was determined using QUANTI-Blue™ kit (Cat. #: rep-qbl, Invivogen, San Diego, Ca, USA) at a wavelength of 640 nm, a detection medium that turns purple or blue in the presence of alkaline phosphatase.
HEK-Blue-hTLR7 cells were incubated at a density of 250,000-450,000 cells/mL in a volume of 180 μL in a 96-well plate in Dulbecco's Modified Eagle's medium (DMEM) containing 4.5 g/L glucose, 50 U/mL penicillin, […], […], 2 mM L-glutamine, 10% (V/V) heat-inactivated fetal bovine serum for 24 hrs. Then the HEK-Blue-hTLR-7 cells were incubated with addition of 20 μL test compound in a serial dilution in the presence of final DMSO at 1% and perform incubation under 37° C. in a CO2 incubator for 20 hrs. Then 20 μL of the supernatant from each well was incubated with […] Quanti-blue substrate solution at 37° C. for 2 hrs and the absorbance was read at 620-655 nm using a spectrophotometer. The signalling pathway that TLR7 activation leads to downstream NF-κB activation has been widely accepted, and therefore similar reporter assay was also widely used for evaluating TLR7 agonist (Tsuneyasu Kaisho and Takashi Tanaka, Trends in Immunology, Volume 29, Issue 7, July 2008, […]; Hiroaki Hemmi et al, Nature Immunology 3, 196-200 (2002)).

[2] = molecular target: hERG channel (Homo sapiens (Human), UniProt Q12809); experiment: hERG channel inhibition assay (patch-clamp, CHOhERG cells); type: cell-based; conditions: for IC20: human, CHO cells stably expressing hERG
Description: The hERG K^+ channels were cloned in humans and stably expressed in a CHO (Chinese hamster ovary) cell line. CHOhERG cells were used for patch-clamp (voltage-clamp, whole-cell) experiments. Cells were stimulated by a voltage pattern to activate hERG channels and conduct IKhERG currents (rapid delayed outward rectifier potassium current of the hERG channel). […] Thereafter, the test compound was added to the preparation at increasing concentrations. For each concentration, an attempt was made to reach a steady-state effect, usually, this was achieved within 3-10 min at which time the next highest concentration was applied. The amplitude and kinetics of IKhERG are recorded in each concentration of the drug which were compared to the control values (taken as 100%). (references: Redfern W S, Carlsson L, Davis A S, Lynch W G, MacKenzie I, Palethorpe S, Siegl P K, Strang I, Sullivan A T, Wallis R, Camm A J, Hammond T G. 2003; Relationships between preclinical cardiac electrophysiology, clinical QT interval prolongation and torsade de pointes for a broad range of drugs: evidence for a provisional safety margin in drug development. Cardiovasc. Res. 58:32-45, Sanguinetti M C, Tristani-Firouzi M. 2006; hERG potassium channels and cardiac arrhythmia. Nature 440:463-469, Webster R, Leishman D, Walker D. 2002; Towards a drug concentration effect relationship for QT prolongation and torsades de pointes. Curr. Opin. Drug Discov. Devel. 5:116-26).

[3] = tested on: CYP3A4; experiment: Cytochrome P450 induction screening assay, mRNA induction in human cryopreserved hepatocytes; type: in vitro ADME; conditions: 24 hours
Source text: Induction of cytochrome P450 enzymes is associated with an increased prevalence of clinical drug-drug interactions. The clinical consequences of induction may be therapeutic failure caused by a decreased systemic exposure of the drug itself or a co-administered therapy, or toxicity as a result of increased bioactivation. Cytochrome P450 (CYP450) induction assay has been used to understand the potential drug-drug interaction liabilities in drug discovery stage. Human cryopreserved hepatocytes (Life Technologies, Carlsbad, USA) were thawed and cultured in collagen I coated 96-well plates with a density of 52,000 cells/well. After attachment, hepatocyte maintenance medium (HMM; Lonza, Switzerland) was changed after cells were pre-cultured overnight. […] Medium change was then performed and cells were exposed for 24 hours to test compounds, positive inducer compounds, or vehicle (0.1% DMSO), respectively. At the end of the compound exposure period, medium was removed and cells lysed using 100 μL/well MagNA Pure LC RNA isolation tissue lysis buffer (Roche Diagnostics AG, Rotkreuz, Switzerland). […] mRNA isolation was performed using the MagNA Pure 96 system (Roche Diagnostics AG, Rotkreuz, Switzerland) and the respective cellular RNA large volume kit (Roche Diagnostics AG, Rotkreuz, Switzerland) from thawed samples diluted 1:1 with PBS. […] The resulting cDNA was diluted with 40 μL of H2O before using for qRT-PCR. qRT-PCR was performed by using the forward and the reverse primer, the corresponding Universal Probe Library (all from Microsynth, Balgach, Switzerland) and the Taqman Fast advanced master mix (Applied Biosystems), on an ABI 7900 machine (Applied Biosystems). qRT-PCR Ct-values for the respective P450s were put into relation to the Ct-value of RN18S1 (microsynth, Balgach, Switzerland) of the same sample. Doing so, a respective Δct-value was calculated. Using the average of all Δct-values for the vehicle control samples, a ΔΔct-value was calculated for each sample (ΔΔct-value(sample)=Δct-value(sample)−average of Δct-value of all vehicle controls). […] The individual fold induction values were then averaged per treatment condition (usually n=3 biological replicates). […] Relative induction (%)=100×(T−V)/(P−V) • T: fold induction of test compound condition • P: fold induction of positive inducer compound • V: fold induction of vehicle controls Results of CYP3A4 induction are given in Table 5.

[4] = molecular target: human TLR8 (Homo sapiens (Human), UniProt Q9NR97); experiment: HEK-Blue-hTLR8 cells assay (SEAP reporter) and selectivity index; type: cell-based; conditions: 20 hrs, read-out: HEK Blue hTLR-8 EC50
Description: These cells were designed for studying the stimulation of human TLR8 by monitoring the activation of NF-κB. […] Therefore the reporter expression was regulated by the NF-κB promoter upon stimulation of human TLR8 for 20 hrs.
Then the HEK-Blue-hTLR8 cells were incubated with addition of 20 μL test compound in a serial dilution in the presence of final DMSO at 1% and perform incubation under 37° C. in a CO2 incubator for 20 hrs. […] The signalling pathway that TLR8 activation leads to downstream NF-κB activation has been widely accepted, and therefore similar reporter assay was also widely used for evaluating TLR8 agonist (Tsuneyasu Kaisho and Takashi Tanaka, Trends in Immunology, Volume 29, Issue 7, July 2008, […]; Hiroaki Hemmi et al, Nature Immunology 3, 196-200 (2002)).

[5] = Single dose PK after 1 mg/kg intravenous dosing to rat; type: in vivo, Male Wister-Han Rats; conditions: IV 1 mpk
Description: The single dose PK in Male Wister-Han Rats was performed to assess pharmacokinetic properties of tested compounds. Two groups of animals were dosed via bolus intravenous (IV) of the respective compound. Blood samples (approximately 20 μL) were collected via Jugular vein or an alternate site at 5 min, 15 min, 30 min, 1 hr, 2 hr, 4 hr, 7 hr and 24 hr post-dose for IV group. Blood samples were placed into tubes containing EDTA-K2 anticoagulant and centrifuged at 5000 rpm for 6 min at 4° C. to separate plasma from the samples. Following centrifugation, the resulting plasma was transferred to clean tubes for bioanalysis on LC/MS/MS. The pharmacokinetic parameters were calculated using non-compartmental module of WinNonlin® Professional 6.2. […] Therefore, compounds of present invention potentially could lead to less dose frequency and lower dose in clinical application.

[6] = rat, IV 1 mpk; data from WO2016023511; cited from earlier work
[7] = tested on: patients with chronic hepatitis B; conditions: phase Ib; cited from earlier work
[8] = read-out: HEK-Blue-hTLR7 (EC50 (μM))
[9] = male, Wister-Han, plasma, iv, 1 mg/kg

Chain of hERG channel (Q12809 whole entry): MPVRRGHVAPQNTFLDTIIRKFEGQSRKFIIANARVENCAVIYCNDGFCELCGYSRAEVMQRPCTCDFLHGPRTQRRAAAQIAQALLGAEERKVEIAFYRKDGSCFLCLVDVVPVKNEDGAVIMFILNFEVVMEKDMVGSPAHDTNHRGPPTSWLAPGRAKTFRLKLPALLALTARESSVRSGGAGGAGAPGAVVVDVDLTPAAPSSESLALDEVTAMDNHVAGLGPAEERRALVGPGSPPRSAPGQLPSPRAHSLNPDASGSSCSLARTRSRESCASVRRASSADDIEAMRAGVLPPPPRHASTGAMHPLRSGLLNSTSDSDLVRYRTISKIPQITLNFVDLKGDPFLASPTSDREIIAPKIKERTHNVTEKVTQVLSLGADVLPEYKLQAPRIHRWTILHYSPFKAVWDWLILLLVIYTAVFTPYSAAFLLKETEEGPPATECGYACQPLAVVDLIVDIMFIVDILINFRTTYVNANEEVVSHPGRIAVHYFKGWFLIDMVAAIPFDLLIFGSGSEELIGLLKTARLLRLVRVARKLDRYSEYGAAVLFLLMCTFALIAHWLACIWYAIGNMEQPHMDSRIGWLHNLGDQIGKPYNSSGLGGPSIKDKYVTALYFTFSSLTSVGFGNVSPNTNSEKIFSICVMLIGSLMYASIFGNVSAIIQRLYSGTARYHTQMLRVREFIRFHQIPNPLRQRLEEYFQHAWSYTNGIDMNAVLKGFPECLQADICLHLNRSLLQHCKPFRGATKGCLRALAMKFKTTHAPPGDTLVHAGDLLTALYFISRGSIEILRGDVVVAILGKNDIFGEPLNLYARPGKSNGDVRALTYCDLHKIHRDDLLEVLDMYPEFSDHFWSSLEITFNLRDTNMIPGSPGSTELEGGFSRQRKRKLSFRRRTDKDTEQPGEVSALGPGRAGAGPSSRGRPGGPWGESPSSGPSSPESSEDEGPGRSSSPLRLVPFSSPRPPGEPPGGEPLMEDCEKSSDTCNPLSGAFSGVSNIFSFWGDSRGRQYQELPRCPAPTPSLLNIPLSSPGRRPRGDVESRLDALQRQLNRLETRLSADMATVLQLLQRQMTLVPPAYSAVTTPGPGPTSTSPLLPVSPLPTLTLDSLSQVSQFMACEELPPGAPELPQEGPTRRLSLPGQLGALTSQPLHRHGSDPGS
Chain of human TLR7 (Q9NYK1 27-1049): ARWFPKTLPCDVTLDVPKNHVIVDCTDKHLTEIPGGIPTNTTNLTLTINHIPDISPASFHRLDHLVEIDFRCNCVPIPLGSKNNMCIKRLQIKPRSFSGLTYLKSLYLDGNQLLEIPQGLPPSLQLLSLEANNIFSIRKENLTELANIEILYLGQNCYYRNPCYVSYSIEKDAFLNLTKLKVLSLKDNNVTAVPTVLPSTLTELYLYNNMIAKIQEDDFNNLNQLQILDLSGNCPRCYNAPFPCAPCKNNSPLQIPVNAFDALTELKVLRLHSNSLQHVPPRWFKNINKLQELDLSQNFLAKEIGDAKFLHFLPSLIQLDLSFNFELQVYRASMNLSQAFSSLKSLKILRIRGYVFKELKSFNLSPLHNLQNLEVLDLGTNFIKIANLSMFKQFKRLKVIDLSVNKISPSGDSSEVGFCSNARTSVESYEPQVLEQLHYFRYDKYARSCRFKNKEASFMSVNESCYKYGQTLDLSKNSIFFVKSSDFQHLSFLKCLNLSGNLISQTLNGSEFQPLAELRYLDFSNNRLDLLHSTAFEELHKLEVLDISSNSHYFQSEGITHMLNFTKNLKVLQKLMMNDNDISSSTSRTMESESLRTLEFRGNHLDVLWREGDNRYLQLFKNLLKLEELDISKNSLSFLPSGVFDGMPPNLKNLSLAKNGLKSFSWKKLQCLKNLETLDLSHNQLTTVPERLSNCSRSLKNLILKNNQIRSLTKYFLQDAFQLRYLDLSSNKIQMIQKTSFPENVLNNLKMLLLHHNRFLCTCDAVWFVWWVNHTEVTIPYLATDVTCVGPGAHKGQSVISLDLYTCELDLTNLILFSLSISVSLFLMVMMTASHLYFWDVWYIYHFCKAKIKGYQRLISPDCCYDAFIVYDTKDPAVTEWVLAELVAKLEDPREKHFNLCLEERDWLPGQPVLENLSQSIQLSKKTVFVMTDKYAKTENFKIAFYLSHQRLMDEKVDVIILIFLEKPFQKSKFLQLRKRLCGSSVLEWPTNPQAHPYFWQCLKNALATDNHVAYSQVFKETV
Chain of human TLR8 (Q9NR97 27-1041): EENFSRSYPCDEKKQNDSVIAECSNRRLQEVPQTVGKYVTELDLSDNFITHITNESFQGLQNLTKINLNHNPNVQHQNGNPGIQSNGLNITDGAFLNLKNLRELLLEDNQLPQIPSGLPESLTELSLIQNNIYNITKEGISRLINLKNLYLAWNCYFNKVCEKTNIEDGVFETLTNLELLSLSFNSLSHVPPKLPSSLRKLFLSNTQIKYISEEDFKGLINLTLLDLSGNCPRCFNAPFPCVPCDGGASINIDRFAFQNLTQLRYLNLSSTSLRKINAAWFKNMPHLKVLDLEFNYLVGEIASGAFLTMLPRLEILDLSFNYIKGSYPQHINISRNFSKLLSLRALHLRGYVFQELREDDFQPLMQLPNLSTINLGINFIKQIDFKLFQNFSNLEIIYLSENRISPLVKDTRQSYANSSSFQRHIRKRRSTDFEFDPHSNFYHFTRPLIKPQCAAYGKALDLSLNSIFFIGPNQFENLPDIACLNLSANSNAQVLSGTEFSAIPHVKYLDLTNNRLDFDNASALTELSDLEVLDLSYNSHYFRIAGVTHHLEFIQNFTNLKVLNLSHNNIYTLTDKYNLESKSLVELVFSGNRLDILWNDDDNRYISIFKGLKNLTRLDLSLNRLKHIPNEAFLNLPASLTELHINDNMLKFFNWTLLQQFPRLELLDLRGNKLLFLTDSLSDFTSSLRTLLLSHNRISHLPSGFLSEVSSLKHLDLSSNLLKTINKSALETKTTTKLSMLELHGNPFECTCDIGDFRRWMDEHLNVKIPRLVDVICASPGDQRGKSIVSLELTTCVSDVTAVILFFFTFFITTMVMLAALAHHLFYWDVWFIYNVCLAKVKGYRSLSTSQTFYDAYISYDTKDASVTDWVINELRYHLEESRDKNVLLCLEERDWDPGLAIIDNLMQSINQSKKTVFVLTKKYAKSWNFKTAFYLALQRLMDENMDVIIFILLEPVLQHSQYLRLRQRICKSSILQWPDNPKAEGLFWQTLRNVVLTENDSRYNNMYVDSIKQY

`CS(=N)(=O)c1nc(N)c2[nH]c(=O)n(Cc3ccccc3)c2n1` (single isomer, unassigned) [Example 1-B, 6-Amino-9-benzyl-2-(methylsulfonimidoyl)-7H-purin-8-one] showed an EC50 [1, 8] of 0.18 µM, an IC50 [2] greater than 20 µM and an IC20 [2] greater than 10 µM.

With `CCCS(=N)(=O)c1nc(N)c2[nH]c(=O)n(Cc3ccccc3)c2n1` (single isomer, unassigned) [Example 4-A, 6-Amino-9-benzyl-2-(propylsulfonimidoyl)-7H-purin-8-one] the “Relative induction of Positive control (10 μM Rifampicin) (%)” value (“Relative induction … (%)” below) [3] was −0.63%.

With `CCCS(=N)(=O)c1nc(N)c2[nH]c(=O)n(Cc3ccccc3)c2n1` (single isomer, unassigned) [Example 4-B, 6-Amino-9-benzyl-2-(propylsulfonimidoyl)-7H-purin-8-one] the EC50 ([1]; HEK-Blue-hTLR7 (EC50 (μM))) was 0.086 µM and the “Relative induction … (%)” value [3] was −0.90%.

In the case of `CCCS(=N)(=O)c1nc(N)c2[nH]c(=O)n(Cc3ccc(C)cc3)c2n1` (single isomer, unassigned) [Example 29-A, 6-Amino-2-(propylsulfonimidoyl)-9-(p-tolylmethyl)-7H-purin-8-one], the EC50 ([1]; HEK-Blue-hTLR7 (EC50 (μM))) is reported as 0.019 µM, the IC50 [2] is reported as greater than 20 µM and the IC20 [2] is reported as greater than 10 µM.

With `CCCS(=N)(=O)c1nc(N)c2[nH]c(=O)n(Cc3ccc(C)cc3)c2n1` (single isomer, unassigned) [Example 29-B, 6-Amino-2-(propylsulfonimidoyl)-9-(p-tolylmethyl)-7H-purin-8-one] the EC50 ([1]; HEK-Blue-hTLR7 (EC50 (μM))) was 0.022 µM and the IC50 [2] was greater than 20 µM.

With `CCS(=N)(=O)c1nc(N)c2[nH]c(=O)n(Cc3ccc(Cl)cc3)c2n1` (single isomer, unassigned) [Example 70-A, 6-Amino-9-[(4-chlorophenyl)methyl]-2-(ethylsulfonimidoyl)-7H-purin-8-one] the EC50 [1, 8] was 0.054 µM, the EC50 [4] was greater than 1000 µM and the “Relative induction … (%)” value [3] was 0.42%. For the same compound, the AUC(0-inf) [5, 9] was 1.63 µM·h, the C0 [5, 9] was 3050 nM and the clearance [5, 9] was 56 mL/min/kg.

In the case of `CCS(=N)(=O)c1nc(N)c2[nH]c(=O)n(Cc3ccc(Cl)cc3)c2n1` (single isomer, unassigned) [Example 70-B, 6-Amino-9-[(4-chlorophenyl)methyl]-2-(ethylsulfonimidoyl)-7H-purin-8-one], the EC50 [1, 8] is reported as 0.077 µM, the “Relative induction … (%)” value [3] is reported as −0.42% and the C0 [5] is reported as 2780 nM.

With `CCS(=N)(=O)c1nc(N)c2[nH]c(=O)n(Cc3ccc(C)cc3)c2n1` (single isomer, unassigned) [Example 71-A, 6-Amino-2-(ethylsulfonimidoyl)-9-(p-tolylmethyl)-7H-purin-8-one] the EC50 [1, 8] was 0.134 µM, the “Relative induction … (%)” value [3] was −0.10% and the IC50 [2] was greater than 20 µM. For the same compound, the IC20 [2] was greater than 10 µM, the AUC(0-inf) [5, 9] was 1.18 µM·h and the C0 [5, 9] was 1850 nM. It also gave a clearance [5, 9] of 84.6 mL/min/kg.

`CCS(=N)(=O)c1nc(N)c2[nH]c(=O)n(Cc3ccc(C)cc3)c2n1` (single isomer, unassigned) [Example 71-B, 6-Amino-2-(ethylsulfonimidoyl)-9-(p-tolylmethyl)-7H-purin-8-one] showed an EC50 [1, 8] of 0.087 µM.

For `CCCS(=N)(=O)c1nc(N)c2[nH]c(=O)n(Cc3ccc(F)cc3)c2n1` (stereo not drawn) [Example 24, 6-Amino-9-[(4-fluorophenyl)methyl]-2-(propylsulfonimidoyl)-7H-purin-8-one], the “Relative induction … (%)” value [3] was −0.72%.

In the case of `CS(=O)(=O)c1nc(N)c2[nH]c(=O)n(Cc3ccccc3)c2n1` [Example S-1, reference compound], the C0 [5] is reported as 534 nM.

In the case of `CCCCOc1nc(N)c2c(n1)N(Cc1cccc(CN3CCCC3)c1)CC(=O)N2` [GS-9620], the C0 [6] is given as 220 nM, the “ISG15 mRNA induction” value [7] is given as “dose-dependent ISG15 mRNA induction” and the Safety and tolerability [7] is given as “safe, well tolerated”.
